Test results reported in patent US20240247080A1, “GLP1/GIP/NPY2 RECEPTOR TRIPLE AGONISTS” (Boehringer Ingelheim International GmbH, priority 2022, published 2024).
Read-outs that look alike come from different tables or passages of the source. Starred links: 1 amine or outer side, 2 acyl side, 3 side chain; linkers in the order of their positions; H or OH if unused. Non-standard residues stand in square brackets, D forms with d. Groups on a side chain read outwards from the residue. No end group written: not given here. *: point of attachment. C20 diacid = O=C(O)CCCCCCCCCCCCCCCCCCC(=O)*; C18 diacid = O=C(O)CCCCCCCCCCCCCCCCC(=O)*; γGlu = O=C(O)[C@H](CCC(=O)[*:2])N[*:1]; εLys = N[C@@H](CCCCN[*:1])C(=O)[*:2]; Aib = CC(C)(N)C(=O)O; Ahx = NCCCCCC(=O)O

T1: hGIPR (Homo sapiens, UniProt P48546)
T1 construct: expressed in transfected cells; host or cells: CHO cells carrying a CRE-luciferase reporter gene
T1 sequence (P48546 22-466): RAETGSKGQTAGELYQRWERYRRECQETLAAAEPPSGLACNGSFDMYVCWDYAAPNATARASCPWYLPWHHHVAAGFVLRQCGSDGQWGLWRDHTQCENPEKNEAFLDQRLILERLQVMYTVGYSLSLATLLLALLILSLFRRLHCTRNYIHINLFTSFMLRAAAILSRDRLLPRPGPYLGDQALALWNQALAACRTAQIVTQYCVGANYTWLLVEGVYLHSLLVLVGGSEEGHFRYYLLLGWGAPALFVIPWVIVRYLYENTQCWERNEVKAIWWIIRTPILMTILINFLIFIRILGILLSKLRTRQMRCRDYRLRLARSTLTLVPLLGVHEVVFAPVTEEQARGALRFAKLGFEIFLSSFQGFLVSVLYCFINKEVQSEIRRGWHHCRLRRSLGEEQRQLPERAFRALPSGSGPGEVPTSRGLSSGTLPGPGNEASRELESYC

T2: hNPY2R (Homo sapiens, UniProt P49146)
T2 construct: expressed in transfected cells; host or cells: HEK-293 cells carrying a CRE-luciferase reporter gene
T2 sequence (P49146 1-381): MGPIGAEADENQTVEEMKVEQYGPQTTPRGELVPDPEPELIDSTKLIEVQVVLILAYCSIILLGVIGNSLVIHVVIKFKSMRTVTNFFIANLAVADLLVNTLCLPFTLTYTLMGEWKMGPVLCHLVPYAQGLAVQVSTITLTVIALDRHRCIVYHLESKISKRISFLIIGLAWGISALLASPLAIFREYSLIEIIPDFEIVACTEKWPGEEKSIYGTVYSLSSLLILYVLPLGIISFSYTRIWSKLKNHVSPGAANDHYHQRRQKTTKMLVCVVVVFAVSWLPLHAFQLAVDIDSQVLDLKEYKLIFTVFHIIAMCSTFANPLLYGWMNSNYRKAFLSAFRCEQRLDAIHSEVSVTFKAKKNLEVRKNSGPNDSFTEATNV

T3: human GIP receptor (human, UniProt P48546 22-466)
T3 sequence (looked up): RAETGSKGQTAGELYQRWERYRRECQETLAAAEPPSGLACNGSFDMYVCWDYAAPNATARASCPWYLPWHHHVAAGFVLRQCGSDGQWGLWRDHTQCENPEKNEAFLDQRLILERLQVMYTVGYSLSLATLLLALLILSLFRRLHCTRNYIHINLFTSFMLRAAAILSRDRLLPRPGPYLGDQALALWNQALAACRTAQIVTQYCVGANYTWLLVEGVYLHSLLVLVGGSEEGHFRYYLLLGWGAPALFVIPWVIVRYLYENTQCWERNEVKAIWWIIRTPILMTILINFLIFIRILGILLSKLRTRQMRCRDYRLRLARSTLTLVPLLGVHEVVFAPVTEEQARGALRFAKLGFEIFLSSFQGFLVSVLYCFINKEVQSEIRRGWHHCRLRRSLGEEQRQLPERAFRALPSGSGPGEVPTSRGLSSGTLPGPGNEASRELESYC

T4: human neuropeptide Y2 receptor (human, UniProt P49146 1-381)
T4 sequence (looked up): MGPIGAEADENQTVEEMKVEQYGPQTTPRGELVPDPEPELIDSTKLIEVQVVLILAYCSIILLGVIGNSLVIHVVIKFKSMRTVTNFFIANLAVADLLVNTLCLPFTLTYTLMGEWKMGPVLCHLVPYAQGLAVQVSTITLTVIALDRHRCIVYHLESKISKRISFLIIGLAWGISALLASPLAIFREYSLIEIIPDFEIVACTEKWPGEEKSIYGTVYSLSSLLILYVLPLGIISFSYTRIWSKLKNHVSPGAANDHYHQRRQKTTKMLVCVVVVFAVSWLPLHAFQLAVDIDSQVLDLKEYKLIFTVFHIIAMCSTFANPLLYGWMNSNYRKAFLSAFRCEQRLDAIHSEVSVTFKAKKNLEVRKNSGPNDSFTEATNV


How the values were obtained:
hGLP1R = target: T5, hGLP1R (Homo sapiens, UniProt P43220); assay: hGLP1R CreLuc reporter gene assay in 0.5% and 100% plasma; type: cell-based; conditions: CreLuc reporter gene assay
T5 construct: expressed in transfected cells; host or cells: HEK-293 cells carrying a CRE-luciferase reporter gene
T5 sequence (P43220 24-463): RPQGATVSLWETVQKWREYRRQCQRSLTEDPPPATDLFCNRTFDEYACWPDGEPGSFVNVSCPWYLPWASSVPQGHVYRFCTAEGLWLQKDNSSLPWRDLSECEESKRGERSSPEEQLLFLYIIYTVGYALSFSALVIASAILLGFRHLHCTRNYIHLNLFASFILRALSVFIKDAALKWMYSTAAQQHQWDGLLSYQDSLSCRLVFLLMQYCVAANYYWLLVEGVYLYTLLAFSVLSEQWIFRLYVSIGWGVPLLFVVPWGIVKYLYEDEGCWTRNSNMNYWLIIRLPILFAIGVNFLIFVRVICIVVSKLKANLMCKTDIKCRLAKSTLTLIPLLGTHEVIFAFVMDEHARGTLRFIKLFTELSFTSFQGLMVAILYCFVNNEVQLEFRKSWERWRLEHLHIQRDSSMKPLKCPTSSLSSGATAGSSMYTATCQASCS
Summary of the method: (§1)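 HEK-293 cells co-expressing GLP-1 or NPY2 receptor and CHO cells expressing GIP receptor, each carrying a CRE-driven luciferase reporter, were stimulated with peptides for 4 hours at 37 °C. Luminescence was read after Bright-Glo addition. EC50 came from 8-point, four-decade curves fitted by variable-slope non-linear regression.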

hGIPR = target: T1, hGIPR; assay: hGIPR CreLuc reporter gene assay in 0.5% and 100% plasma; type: cell-based; conditions: CreLuc reporter gene assay
Summary of the method: as §1

hNPY2R = target: T2, hNPY2R; assay: hNPY2R CreLuc reporter gene assay in 0.5% and 100% plasma; type: cell-based; conditions: CreLuc reporter gene assay
Summary of the method: as §1

human GLP-1 receptor = human GLP-1 receptor (human, UniProt P43220 24-463); assay: cell-based or functional assay
human GIP receptor = target: T3, human GIP receptor; assay: cell-based or functional assay
[1] = target: T4, human neuropeptide Y2 receptor; assay: cell-based or functional assay
[2] = 0.5% human plasma, read-out: hGLP1R 0.5% hP
[3] = 0.5% human plasma, read-out: hGIPR 0.5% hP
[4] = 100% human plasma, read-out: hNPY2R 100% hP
[5] = 0.5% human plasma, read-out: hNPY2R 0.5% hP
[6] = 100% human plasma, read-out: hGIPR 100% hP

| Molecule | EC50 (hGLP1R; [2]) | EC50 (hGIPR; [3]) | EC50 (hNPY2R; [4]) | EC50 (hNPY2R; [5]) | EC50 (hGIPR; [6]) | further results |
| --- | --- | --- | --- | --- | --- | --- |
| H-Y[Aib]EGTFTSDYSI[Aib]LEKQAQ[Aib]AFVEWLIK([εLys-γGlu-γGlu-γGlu-γGlu-γGlu-γGlu-C20 diacid])GGPSSGASIRHYYNWLTRQRY-NH2 [Compound 132, Y-Aib-E-G-T-F-T-S-D-Y-S-I-Aib-L-E-K-Q-A-Q-Aib-A-F-V-E-W-L-I-K(1,3)-GGPSSGASIRHYYNWLTRQRY-NH2.C20DA-gGlu-gGlu-gGlu-gGlu-gGlu-gGlu-eLys(1,2)] | 0.14 nM | 0.22 nM | 45.4 nM |  |  |  |
| H-Y[Aib]EGTFTSDYSI[Aib]LEKQAQ[Aib]AFVEWLIK([εLys-γGlu-γGlu-γGlu-γGlu-γGlu-γGlu-C20 diacid])GGPSTGASLRHYYNWLTRQRY-NH2 [Compound 244, Y-Aib-E-G-T-F-T-S-D-Y-S-I-Aib-L-E-K-Q-A-Q-Aib-A-F-V-E-W-L-I-K(1,3)-GGPSTGASLRHYYNWLTRQRY-NH2.C20DA-gGlu-gGlu-gGlu-gGlu-gGlu-gGlu-eLys(1,2)] | 0.19 nM | 0.32 nM |  | 13.5 nM |  |  |
| Y[Aib]EGTFTSDYSI[Aib]LEKQAQ[Aib]AFVEWLIK([εLys-γGlu-γGlu-γGlu-γGlu-γGlu-C20 diacid])GGPESPASLRHYYNWLTRQRY-NH2 [Compound 70, Y-Aib-E-G-T-F-T-S-D-Y-S-I-Aib-L-E-K-Q-A-Q-Aib-A-F-V-E-W-L-I-K(1,3)-GGPESPASLRHYYNWLTRQRY-NH2.C20DA-gGlu-gGlu-gGlu-gGlu-gGlu-eLys(1,2)] | 0.3 nM | 0.28 nM |  | 16.2 nM | 2.62 nM |  |
| H-Y[Aib]EGTFTSDYSI[Aib]LEKQAQ[Aib]AFVQWLIK([γGlu-γGlu-γGlu-γGlu-γGlu-γGlu-C18 diacid])GGPSEGASLRHYYNWLTRQRY-NH2 [Compound 252, Y-Aib-E-G-T-F-T-S-D-Y-S-I-Aib-L-E-K-Q-A-Q-Aib-A-F-V-Q-W-L-I-K(1,3)-GGPSEGASLRHYYNWLTRQRY-NH2.C18DA-gGlu-gGlu-gGlu-gGlu-gGlu-gGlu(1,2)] | 0.1 nM | 0.29 nM | 33.5 nM |  | 1.25 nM | EC50 (hGLP1R; 100% human plasma, read-out: hGLP1R 100% hP): 2.59 nM |
| Y[Aib]EGTFTSDYSI[Aib]LEKQAQ[Aib]AFVQWLIK([Ahx-γGlu-γGlu-γGlu-γGlu-γGlu-γGlu-C18 diacid])GGPSEGASLRHYYNWLTRQRY-NH2 [Compound 245, Y-Aib-E-G-T-F-T-S-D-Y-S-I-Aib-L-E-K-Q-A-Q-Aib-A-F-V-Q-W-L-I-K(1,3)-GGPSEGASLRHYYNWLTRQRY-NH2.C18DA-gGlu-gGlu-gGlu-glu-gGlu-Glu-AHX(1,2)] | 0.09 nM | 0.37 nM |  | 24.5 nM |  |  |
| Y[Aib]EGTFTSDYSI[Aib]LEKQAQ[Aib]AFVQWLIK([εLys-γGlu-γGlu-γGlu-γGlu-γGlu-C20 diacid])GGPSEPASLRHYYNWLTRQRY-NH2 [Compound 169] |  |  |  |  |  | EC50 CreLuc hGLP1R 0.5% hP (human GLP-1 receptor): 0.13 nM; EC50 CreLuc hGLP1R 100% hP (human GLP-1 receptor): 7.3 nM; EC50 CreLuc hGIPR 0.5% hP (human GIP receptor): 0.26 nM; EC50 CreLuc hGIPR 100% hP (human GIP receptor): 3.15 nM; EC50 CreLuc hNPY2R 0.5% hP [1]: 10.3 nM; EC50 CreLuc hNPY2R 100% hP [1]: 50.3 nM |
